These results are taken from patent publication US8609858B2, “Spiro derivatives of parthenin as novel anticancer agents” (Council of Scientific & Industrial Research, priority 2008, dated 2013).

What is called IC50 is the concentration that gives 50% inhibition.

Entries after “also recorded” stand apart in the source; their conditions may differ.

The test system of one data set is PC-3. In words: In vitro cytotoxicity screening (sulphodamine B dye), PC-3. Particulars: Homo sapiens; PC-3 prostate cancer cell line. Format: cell-based. How it is done:
(§1) Cells at sub confluent stage were harvested from the flask by treatment with trypsin (0.5% in PBS containing 0.02% EDTA) for determination of cytotoxicity. […] The cell suspensions of required cell density were prepared in complete growth medium with gentamycin (50 μg/ml) for determination of cytotoxicity. The cells (100 μl/well) were inoculated in 96 well tissue culture plates. The cells were allowed to grow for 24 hrs temperature of 37° C. and in a humidified atmosphere of 5% CO2 in air. Stock solution of (20 mM) of test material was prepared in DMSO. The stock solution was serially diluted with complete growth medium containing 50 μg/ml of gentamycin to obtain […] working test solutions of 1., 2, 5, 10, 50 and 100 μM.
(§2) The media were supplemented with FCS (10%), penicillin (100 Units/ml), streptomycin (100 μg/ml) and glutamine (2 mM) and cells were grown in CO2 incubator (Hera cell, Heraeus, USA) at 37° C. with 90% humidity and 5% CO2.

The next data set concerns SW-620. The data set can be described thus: In vitro cytotoxicity screening (sulphodamine B dye), SW-620. Format: cell-based. Particulars: Homo sapiens; SW-620 colon cancer cell line. How it is done: as §1, §2
Data set [1] deals with Ehrlich Ascites Carcinoma (EAC). The data set can be described thus: Anti tumor activity on Ehrlich Ascites Carcinoma (EAC) bearing mice. Particulars: for mortality of test animals: EAC bearing mice. Format: in vivo. From the text: (§3) Non-inbred swiss albino mice from an in-house colony were used in the present study. The breeding and experimental animals were housed in standard size polycarbonate cages providing internationally recommended space for each animal. Animals were fed balanced mice feed supplied by MIs Ashirwad Industries, Chandigarh (India) and autoclaved water was available ad libitum. Animals were cared as per the guide for the care and use of laboratory animals (1996), ILAR, Washington D.C. They were housed in controlled conditions of temperature (23±2° C.), humidity (50-60%) and 12:12 hrs of light: dark cycle. The study and the number of animals used were approved by the institutional animal ethics committee, IIIM, Jammu, India. The study was conducted as per the protocols of National Cancer Institute (NCl), USA (Geran et al., 1972).
Ehrlich Ascites Carcinoma (EAC) was propagated by transplanting 1×10^7 cells from an animal bearing 8-10 days old Ehrlich Ascites Carcinoma, into the peritoneal cavity of non-inbreed swiss mice. For testing, mice of the same sex weighing 20 ±3 g bearing ascites tumor were selected. 1×10^7 cells obtained from an animal bearing 8-10 days old ascites tumor were injected into peritoneal cavity of all animals used for testing (0 Day). On next day animals were randomized and divided into test groups (7 animals in each test group) and one tumor control group (10 animals). Test groups were treated with different doses of Parthenin (10 mg/kg, 25 mg/kg and 50 mg/kg) and its derivative Compound-17 (10 mg/kg, 25 mg/kg and 50 mg/kg, 100 mg/kg and 200 mg/kg) suspension in 1% gum acacia in their respective group intraperitonealy for nine consecutive days. Another test group was administered 5 FU @ 20 mg/kg i.p and served as positive control. The tumor control group was similarly administered normal saline (0.2 ml i.p). The percent tumor growth inhibition were measured on day 12 with respect to volume of ascitic fluid and the number of tumor cells in the ascitic fluid of peritoneal cavity (Geran et al., 1972; Singh et al., 2007).
The percent tumor growth inhibition was calculated as follow. % growth inhibition=100×(Average no. of cells in control group−Average no. of cells in test group)/Average no. of cells in control group Results: […]

In data set [2] the test system is Ehrlich Ascites Tumor (EAT). The data set can be described thus: Anti tumor activity on solid Ehrlich Ascites Tumor (EAT) bearing mice. Format: in vivo. Particulars: for mortality of test animals: EAT bearing mice.
Text: as §3
Parthenin and its derivative Compound-17 were evaluated against solid Ehrlich Ascites Tumor (EAT) models at different doses. A standard procedure for experiment was as followed:
Animals of the same sex weighing 20±3 g were injected 1×10^7 cells collected from the peritoneal cavity of non-inbred swiss mice, bearing 8-10 days old tumor cells, into the right thigh, intramuscularly (on Day 1). On next day animals were randomized and divided into test groups (7 animals in each test group) and one tumor control group (10 animals). Test groups were treated with different doses of Parthenin (10 mg/kg, 25 mg/kg and 50 mg/kg) and its derivative Compound-17 (10 mg/kg, 25 mg/kg and 50 mg/kg, 100 mg/kg and 200 mg/kg) suspension in 1% gum acacia in, their respective group intraperitonealy for nine consecutive days. Another test group was administered 5-FU @ 22 mg/kg i.p and served as positive control. The tumor contra group was similarly administered normal saline (0.2 ml i.p). The percent tumor growth-inhibition was measured on day 13 with respect to their tumor weight (Geran et al., 1972): Shortest and longest diameters of the tumor mass were measured with the help of vernier caliper and tumor weight (mg) was calculated by using following formula Tumor weight (mg)=Length (mm)×(Width (mm)^2/2 The average tumor weight for each group was calculated and the percent tumor growth inhibition in treated groups was calculated as follows: % Tumor Growth Inhibition=100×(Average tumor weight of control group−Average tumor weight of test group)/Average tumor weight of control group Anti Tumor Activity of Parthenin and its Derivative Compound-17 on Ehrlich Ascites Carcinoma (EAC)

The next data set relates to DU-145. In words: In vitro cytotoxicity screening (sulphodamine B dye), DU-145. Format: cell-based. Particulars: Homo sapiens; DU-145 prostate cancer cell line. As for the experimental part:
as §1, §2

The mark [3] stands for this setting: 10 mg/kg i.p., nine days, day 12.
Setting [4] is: 10 mg/kg i.p., nine days, day 13.

Consider `C=C1C(=O)O[C@@H]2[C@H]1CC[C@H](C)[C@]1(O)C=CC(=O)[C@@]21C` [Parthenin], for which the IC50 in the data set with PC-3 was 40.3 µM; in the data set with SW-620, 38.7 µM; in the data set on DU-145, 31.1 µM. Besides, the “% Tumor growth inhibition” value in data set [1] (setting [3]) is on record as 12.01%; in data set [2] (setting [4]), 9.69%. For the same compound, in data set [1] (setting [3]), the “Ascitic fluid volume (ml) Mean ± SE” value came to 3.92 ± 0.38 mL. The “Tumor cells in ascitic fluid (×10^7) Mean ± SE” value in data set [1] (setting [3]) is listed as 74.71 ± 2.77 ×10^7. The “mortality of test animals” value in data set [1] (25 mg/kg i.p.) was “mortality of all the test animals; also recorded: All animals died by 4th day”; in data set [1] (50 mg/kg i.p.), “mortality of all the test animals; also recorded: All animals died by 2nd day”; in data set [2] (25 mg/kg i.p.), “mortality of all the animals; also recorded: All animals died by 4th day”; in data set [2] (50 mg/kg i.p.), “mortality of all the animals; also recorded: All animals died by 2nd day”. Further, the “Tumor Weight (mg) Mean ± SE” value in data set [2] (setting [4]) was found to be 1542.86 ± 35.24 mg.
